Data on 15 molecules can be found in patent publication US6884808B2, “Heterocycle-containing carboxylic acid derivative and drug containing the same” (Eisai Co. Ltd., priority 1995, dated 2005).

Molecules are shown by their SMILES.

Turning to `Cc1c(-c2ccc(C(=O)O)cc2)cc(-c2cnc3c(n2)C(C)(C)CCC3(C)C)n1C` [Example 37], the melting point (as a rule, the temperature of the solid-liquid transition) fell in the range of 265 to 267 °C.
Consider `CC1(C)CC(C)(C)c2nc(-c3cc(-c4ccc(C(=O)O)cc4)co3)cnc21` [Example 39, 4-[4-[2-[2-(5,5,7,7-Tetramethylcyclopenta[b]pyrazinyl)]-furyl]]benzoic acid], for which the melting point fell in the range of 250 to 252 °C.
With `Cc1sc(-c2cnc3c(n2)C(C)(C)CCC3(C)C)cc1-c1ccc(C(=O)O)cc1` [Example 32, 4-[3-[5-[2-(5,6,7,8-Tetrahydro-5,5,8,8-tetramethylquinoxalyl)]-2-methylthienyl]]benzo acid], the melting point lay within 215 to 217 °C.
In the case of `CC(C)n1cc(-c2ccc(C(=O)O)cc2)cc1-c1cnc2c(n1)C(C)(C)CCC2(C)C` [Example 33, 4-[4-[2-[2-(5,6,7,8-tetrahydro-5,5,8,8-tetramethylquinoxalyl)]-1-isopropylpyrrolyl]]benzoic acid] it was 225 to 227 °C; in that of `CC1(C)CCC(C)(C)c2nc(C(=O)Nc3ccc(C(=O)O)cc3)cnc21` [Example 88, 4-(5,6,7,8-Tetrahydro-5,5,8,8-tetramethyl-2-quinoxalinecarbamoyl)benzoic acid], 257 to 259 °C.
For `CC(C)c1ncc(-c2ccc(-c3ccc(C(=O)O)cc3)s2)nc1C(C)C` [Example 46, 4-[2-[5-[2-(5,6,-Diisopropylpyrazinyl)]thienyl]]benzoic acid], the melting point was 270 to 272 °C.
As to `CC(C)c1ncc(-c2ccc(-c3ccc(C(=O)O)cc3)o2)nc1C(C)C` [Example 48, 4-[2-[5-[2-(5,6-Diisopropropylpyrazinyl)]furyl]]benzoic acid], the melting point fell in the range of 260 to 262 °C.
Molecule `CCn1cc(-c2ccc(C(=O)O)cc2)cc1-c1cnc(C(C)C)c(C(C)C)n1` [Example 36, 4-[4-[2-[2-(5,6-Diisopropylpyrazinyl)]-1-ethylpyrrolyl]]benzoic acid] returned a melting point of 272 to 274 °C.
In the case of `CC1(C)CC(C)(C)c2nc(-c3cc(-c4ccc(C(=O)O)cc4)c[nH]3)cnc21` [Example 28, 4-[4-[2-[2-(5,5,7,7-Tetramethylcyclopenta[b]pyrazinyl)]pyrrolyl]]benzoic acid] it was 145 to 147 °C; in that of `Cc1oc(-c2cnc3c(n2)C(C)(C)CCC3(C)C)cc1-c1ccc(C(=O)O)cc1` [Example 40, 4-[3-[5-[2-(5,6,7,8-Tetrahydro-5,5,8,8-tetramethylquinoxalyl)]-2-methylfuryl]]benzoic acid], 270 to 272 °C.
Regarding `CC1(C)CCC(C)(C)c2nc(-c3ccc(-c4ccc(C(=O)O)cn4)[nH]3)cnc21` [Example 45, 6-[2-[5-[2-(5,6,7,8-Tetrahydro-5,5,8,8-tetramethylquinoxalyl)]pyrrolyl]]nicotinic acid], the melting point is 278 °C (dec.).
Molecule `Cn1c(-c2ccc(C(=O)O)cc2)ccc1-c1cnc2c(n1)C(C)(C)CC2(C)C` [Example 50, 4-[2-[5-[2-(5,5,7,7-Tetramethylcyclopenta[b]pyrazinyl)]-1-methylpyrrolyl]]benzoic acid] gave a melting point of 218 to 220 °C.
As for `CC(C)c1ncc(-c2cc(-c3ccc(C(=O)O)cc3)c[nH]2)nc1C(C)C` [Example 27, 4-[4-[2-[2-(5,6-Diisopropylpyrazinyl)]pyrrolyl]]benzoic acid], the melting point was 245 °C (dec.).
As for `CC1(C)CC(C)(C)c2nc(-c3cc(-c4ccc(C(=O)O)cc4)cs3)cnc21` [Example 31, 4-[4-[2-[2-(5,5,7,7-Tetramethylcyclopenta[b]pyrazinyl)]thienyl]]benzoic acid], the melting point was 222 °C (dec.).
Consider `CC(C)c1nnc(C(=O)Nc2ccc(C(=O)O)cc2)nc1C(C)C` [Example 91, 4-(5,6-Diisopropyl-3-[1,2,4]triazinecarbamoyl)benzoic acid], for which the melting point lay in the range of 182 to 184 °C.
